Tests used:
[1] = system: HME cells; assay: Labile iron pool assay (calcein) in hepcidin-treated cells; format: cell-based, human; settings: 700 nM hepcidin or vehicle control (FIG. 3B)
Method: (§1) Human mammary epithelial (HME) cells were obtained from Lonza (Rockland, Me.). HME cells transduced with h-TERT, SV40 T antigen and high levels of H-ras are termed R5 cells in this report and were a generous gift from the laboratory of Dr. Robert Weinberg, Boston, Mass. (14). All cells were maintained at 37° C. in a humidified atmosphere containing 5% CO2. Cells were maintained in Dulbecco's […] (DMEM-F12) medium (Gibco/BRL [Grand Island, N.Y.]) supplemented with L-glutamine, 10 μg/ml insulin, 10 ng/ml human epidermal growth factor, and 0.5 μg/ml hydrocortisone for 24 hrs prior to harvest. MCF7 and MCF10A cell lines were obtained from the Wake Forest University Comprehensive Cancer Center Tissue Culture Core facility. SUM149 and SUM102 cell lines were a generous gift of Dr. I. Berquin, Wake Forest University School of Medicine. […]
The cellular labile iron pool (LIP) was measured with the fluorescent metallosensor calcein, essentially as described (20). […] Fluorescence was measured at 485 nm excitation and 535 nm emission with a fluorescence plate reader (fmax Fluorescence Microplate Reader, Molecular Devices). After the fluorescence signal was stabilized, SIH was added to remove iron from calcein, causing dequenching. The change in fluorescence following the addition of SIH (ΔF) was used as a measure of the labile iron pool.

[2] = biological target: T1, ferroportin (Homo sapiens, UniProt Q9NP59); assay: Western blot of ferroportin in hepcidin-treated cells; format: cell-based; settings: HME cells, 300 or 700 nM hepcidin for 6 hours (FIG. 3D)
T1 construct: endogenous in cells; host or cells: primary human mammary epithelial (HME) cells (Lonza)
T1 sequence (Q9NP59 1-571): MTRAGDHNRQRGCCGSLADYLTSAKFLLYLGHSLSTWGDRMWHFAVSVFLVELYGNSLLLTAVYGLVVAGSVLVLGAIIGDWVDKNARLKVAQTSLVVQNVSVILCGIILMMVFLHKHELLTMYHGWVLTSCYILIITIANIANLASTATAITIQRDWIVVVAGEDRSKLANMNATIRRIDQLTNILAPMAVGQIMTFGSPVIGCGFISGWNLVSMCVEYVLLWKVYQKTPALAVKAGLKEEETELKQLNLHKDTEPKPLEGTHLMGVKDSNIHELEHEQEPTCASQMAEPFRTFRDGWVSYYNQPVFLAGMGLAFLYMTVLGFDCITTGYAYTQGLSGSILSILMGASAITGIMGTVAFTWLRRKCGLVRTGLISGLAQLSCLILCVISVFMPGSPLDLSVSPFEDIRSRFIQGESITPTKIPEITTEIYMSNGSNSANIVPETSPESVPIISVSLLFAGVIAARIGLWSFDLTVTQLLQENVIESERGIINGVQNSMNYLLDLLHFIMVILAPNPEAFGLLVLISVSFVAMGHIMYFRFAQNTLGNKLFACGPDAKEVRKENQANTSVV
Method: as §1, with “facility.” for “facility. SUM149 and SUM102 cell lines were a generous gift of Dr. I. Berquin, Wake Forest University School of Medicine.”
(§2) Cells were washed once in phosphate-buffered saline (PBS) and scraped. […] Total protein concentrations were determined using BCA reagent (Pierce). […] Ferritin H was detected as previously described (49). Ferroportin was detected using anti-ferroportin-1 antibody (MTP-1, Alpha Diagnostics) followed by horseradish peroxidase conjugated goat anti-rabbit secondary antibody (Bio-Rad). […] Prohepcidin was detected using a rabbit polyclonal antibody (Hepcidin-25 antibody, ab75883, Abcam) followed by horseradish peroxidase conjugated goat anti-rabbit secondary antibody (Bio-Rad). […]

[3] = system: ferritin H; assay: Western blot of ferritin H in hepcidin-treated cells; format: cell-based, human; settings: HME cells, 300 nM or 700 nM hepcidin for 6 hours (FIG. 3C)
Method: as §1, with “facility.” for “facility. SUM149 and SUM102 cell lines were a generous gift of Dr. I. Berquin, Wake Forest University School of Medicine.”
as §2

In the case of “Hepcidin: Peptide hormone that binds ferroportin and triggers its degradation; obtained from Peptides International, dissolved in water”, the labile iron pool [1] is reported as “increases the labile iron pool”, the “ferroportin protein (Western blotting)” value [2] is reported as “Ferroportin is degraded” and the “levels of ferritin protein (ferritin H, Western blotting)” value [3] is reported as “increases levels of ferritin protein”.
